From patent publication US9487749B2 (priority 2009, dated 2016)

Legend:
[1] = test system: Chlorella sorokiniana; experiment: Algal growth with MSM by percent transmittance; assay type: cell-based
Description: Two species of Chlorella were examined for growth—Chlorella sorokiniana a freshwater species and Chlorella minutissima a marine species. […] Growth was measured on day 0, 1, 2, 3, 4, 5, 6, 7, 8, 9 and 10. […] The following media were purchased from UTEX Culture Collection of Algae: Enriched Salt Water Medium and Volvox Dextrose Medium.
The algae were grown for 48 hours in the appropriate medium. The initial suspension was enumerated for each alga and is referred to as the starting inoculums. Chlorella sorokiniana was at 381 million cells per milliliter and Chlorella minutissima was at 19 million cells per milliliter. One milliliter of the algal solution was placed into 9 mLs of medium and mixed by vortexing. […] The tube of algae and MSM were incubated at room temperature with exposure to sunlight. […] Each dilution of MSM for each organism was set up in and analyzed in triplicate for each time interval measured. The samples were measured by percent transmittance on a UV/VIS spectrophotometer at wavelength 750 nm. The medium stock was tested for percent transmittance background levels at every time interval were measured. The lower percent transmittance indicated a higher growth factor.

[2] = test system: Vero cells (ATCC#CCL-81)

CS(C)(=O)=O [MSM, Methylsulfonylmethane]
percent transmittance ([1]; MSM 0.5, day 0, 750 nm): 47.3% | percent transmittance ([1]; MSM 0.5, day 1, 750 nm): 41.8% | percent transmittance ([1]; MSM 0.5, day 2, 750 nm): 29.3% | percent transmittance ([1]; MSM 0.5, day 3, 750 nm): 29.6% | percent transmittance ([1]; MSM 0.5, day 4, 750 nm): 19.0% | percent transmittance ([1]; MSM 0.5, day 5, 750 nm): 12.4% | percent transmittance ([1]; MSM 0.5, day 6, 750 nm): 12.5% | percent transmittance ([1]; MSM 0.5, day 7, 750 nm): 11.9% | percent transmittance ([1]; MSM 0.5, day 8, 750 nm): 12.2% | percent transmittance ([1]; MSM 0.5, day 9, 750 nm): 7.5% | percent transmittance ([1]; MSM 0.5, day 10, 750 nm): 6.4% | percent transmittance ([1]; MSM 1, day 0, 750 nm): 48.7% | percent transmittance ([1]; MSM 1, day 1, 750 nm): 42.5% | percent transmittance ([1]; MSM 1, day 2, 750 nm): 37.5% | percent transmittance ([1]; MSM 1, day 3, 750 nm): 37.5% | percent transmittance ([1]; MSM 1, day 4, 750 nm): 17.3% | percent transmittance ([1]; MSM 1, day 5, 750 nm): 13.5% | percent transmittance ([1]; MSM 1, day 6, 750 nm): 13.0% | percent transmittance ([1]; MSM 1, day 7, 750 nm): 12.5% | percent transmittance ([1]; MSM 1, day 8, 750 nm): 12.4% | percent transmittance ([1]; MSM 1, day 9, 750 nm): 7.8% | percent transmittance ([1]; MSM 1, day 10, 750 nm): 6.6% | percent transmittance ([1]; MSM 2.5, day 0, 750 nm): 40.6% | percent transmittance ([1]; MSM 2.5, day 1, 750 nm): 43.1% | percent transmittance ([1]; MSM 2.5, day 2, 750 nm): 44.9% | percent transmittance ([1]; MSM 2.5, day 3, 750 nm): 43.8% | percent transmittance ([1]; MSM 2.5, day 4, 750 nm): 26.1% | percent transmittance ([1]; MSM 2.5, day 5, 750 nm): 10.3% | percent transmittance ([1]; MSM 2.5, day 6, 750 nm): 10.9% | percent transmittance ([1]; MSM 2.5, day 7, 750 nm): 11.0% | percent transmittance ([1]; MSM 2.5, day 8, 750 nm): 11.2% | percent transmittance ([1]; MSM 2.5, day 9, 750 nm): 8.4% | percent transmittance ([1]; MSM 2.5, day 10, 750 nm): 6.0% | percent transmittance ([1]; MSM 5, day 0, 750 nm): 35.6% | percent transmittance ([1]; MSM 5, day 1, 750 nm): 31.2% | percent transmittance ([1]; MSM 5, day 2, 750 nm): 27.4% | percent transmittance ([1]; MSM 5, day 3, 750 nm): 21.4% | percent transmittance ([1]; MSM 5, day 4, 750 nm): 18.2% | percent transmittance ([1]; MSM 5, day 5, 750 nm): 15.7% | percent transmittance ([1]; MSM 5, day 6, 750 nm): 15.9% | percent transmittance ([1]; MSM 5, day 7, 750 nm): 16.3% | percent transmittance ([1]; MSM 5, day 8, 750 nm): 17.0% | percent transmittance ([1]; MSM 5, day 9, 750 nm): 13.7% | percent transmittance ([1]; MSM 5, day 10, 750 nm): 12.8% | percent transmittance ([1]; MSM 10, day 0, 750 nm): 31.2% | percent transmittance ([1]; MSM 10, day 1, 750 nm): 31.3% | percent transmittance ([1]; MSM 10, day 2, 750 nm): 29.7% | percent transmittance ([1]; MSM 10, day 3, 750 nm): 28.4% | percent transmittance ([1]; MSM 10, day 4, 750 nm): 29.0% | percent transmittance ([1]; MSM 10, day 5, 750 nm): 28.7% | percent transmittance ([1]; MSM 10, day 6, 750 nm): 27.1% | percent transmittance ([1]; MSM 10, day 7, 750 nm): 27.6% | percent transmittance ([1]; MSM 10, day 8, 750 nm): 27.1% | percent transmittance ([1]; MSM 10, day 9, 750 nm): 76.4% | percent transmittance ([1]; MSM 10, day 10, 750 nm): 93.8% | percent transmittance ([1]; MSM 20, day 0, 750 nm): 19.3% | percent transmittance ([1]; MSM 20, day 1, 750 nm): 21.9% | percent transmittance ([1]; MSM 20, day 2, 750 nm): 24.1% | percent transmittance ([1]; MSM 20, day 3, 750 nm): 28.1% | percent transmittance ([1]; MSM 20, day 4, 750 nm): 31.4% | percent transmittance ([1]; MSM 20, day 5, 750 nm): 33.6% | percent transmittance ([1]; MSM 20, day 6, 750 nm): 36.8% | percent transmittance ([1]; MSM 20, day 7, 750 nm): 40.6% | percent transmittance ([1]; MSM 20, day 8, 750 nm): 40.8% | percent transmittance ([1]; MSM 20, day 9, 750 nm): 84.8% | percent transmittance ([1]; MSM 20, day 10, 750 nm): 96.7% | Test Product Cytotoxicity [2]: 00
